Measurements published in article PMC12034907 (Journal of Clinical Pharmacology, 2024).
Entries after “also recorded” stand apart in the source; their conditions may differ. Read-outs that look alike come from different tables or passages of the source. Marks after values point to notes of the source that are not given here.

How the values were obtained:
[1] = tested on: CYP3A; conditions: cited from earlier work; for midazolam exposure relative to baseline exposure: studies with CYP3A inducers; for effect of CYP3A inhibitor on midazolam exposure: interaction studies
[2] = tested on: CYP3A4
[3] = cited from earlier work
[4] = tested on: CYP2C19; conditions: liver metabolism; cited from earlier work
[5] = Clinical DDI study: safety and tolerability; format: in vivo, human; conditions: for AEs leading to death / AEs leading to treatment discontinuation / Related AEs / Serious AEs / Severity of AE: Mild / Severity of AE: Moderate / Severity of AE: Severe / AEs: by period, safety population; for AEs: participants who experienced AEs
[6] = tested on: CYP3A4; conditions: liver metabolism; cited from earlier work
[7] = tested on: CYP2C9; conditions: liver metabolism; cited from earlier work
[8] = midazolam 5 mg + mavacamten 15 mg on day 17, geometric mean (geometric CV%)
[9] = midazolam 5 mg oral alone (day 1), geometric mean (geometric CV%)
[10] = with mavacamten vs midazolam alone

Compound: NC(=O)N1c2ccccc2C=Cc2ccccc21 [carbamazepine]
- midazolam exposure relative to baseline exposure [1]: below 10%

Compound: OCc1ncc2n1-c1ccc(Cl)cc1C(c1ccccc1F)=NC2 [1′‐Hydroxymidazolam, 1′‐hydroxymidazolam]
- tmax, median (range) (midazolam 5 mg + mavacamten 15 mg on day 17, n = 12): 0.51 (0.50‐1.0) h
- AUC0-inf [8]: 47.76 (36.3) (n = 7) ^b ng∙h/mL
- t1/2 [8]: 5.22 (29.9) (n = 7) ^b h
- tmax, median (range) (midazolam 5 mg oral alone (day 1), n = 13): 1.00 (0.50‐2.08) h
- AUC0-last (midazolam 5 mg oral alone (day 1), n = 13, geometric mean (geometric CV%)): 38.63 (22.2) ng∙h/mL
- AUC0-inf [9]: 41.47 (24.1) (n = 10) ^b ng∙h/mL
- t1/2 [9]: 6.48 (24.7) (n = 10) ^b h
- increase in AUC0-inf [2, 10]: 20%
- increase in AUC0-last [2, 10]: 11%
- increase in Cmax [2, 10]: 28%

Compound: CC(=O)N1CCN(c2ccc(OCC3COC(Cn4ccnc4)(c4ccc(Cl)cc4Cl)O3)cc2)CC1 (centres unmarked) [ketoconazole]
- effect of CYP3A inhibitor on midazolam exposure [1]: increases in midazolam exposure

Compound: CC(C)n1c(=O)cc(N[C@@H](C)c2ccccc2)[nH]c1=O [Mavacamten]
- estimated oral bioavailability [3]: at least 85%
- median time to maximum plasma concentration (tmax) [3]: 1 to 2 h
- share of metabolism by CYP2C19 [4]: 74%
- AEs leading to death [5]: 0 n (%)
- AEs leading to treatment discontinuation [5]: 0 n (%)
- Related AEs [5]: 5 (38.5) n (%)
- Serious AEs [5]: 0 n (%)
- Severity of AE: Mild [5]: 9 (69.2) n (%)
- Severity of AE: Moderate [5]: 1 (7.7) n (%)
- Severity of AE: Severe [5]: 0 n (%)
- tolerability ([5]; healthy participants): well tolerated
- AEs [5]: 9 (69.2) n (%)
- effect of mavacamten on midazolam exposure (CYP3A4 induction) ([2]; clinically relevant mavacamten exposures, healthy participants): negligible effect; also recorded: did not meet the criteria for induction
- share of metabolism by CYP3A4 [6]: 18%
- share of metabolism by CYP2C9 [7]: 8%

Compound: Cc1ncc2n1-c1ccc(Cl)cc1C(c1ccccc1F)=NC2 [Midazolam]
- Tmax (human, plasma, oral, tmax, midazolam alone or with mavacamten): < 1 h
- AUC(0-t) (human, plasma, po, 5 mg): 51 ng·h/mL
- t1/2 [8]: 4.84 (34.4) (n = 9) ^a h
- t1/2 [9]: 5.28 (39.3) h
- AEs leading to death [5]: 0 n (%)
- AEs leading to treatment discontinuation [5]: 0 n (%)
- Related AEs [5]: 2 (15.4) n (%)
- Serious AEs [5]: 0 n (%)
- Severity of AE: Mild [5]: 3 (23.1) n (%)
- Severity of AE: Moderate [5]: 0 n (%)
- Severity of AE: Severe [5]: 0 n (%)
- AEs [5]: 3 (23.1) n (%)
- decrease in AUC0-inf [2, 10]: 13%
- decrease in AUC0-last [2, 10]: 24%
- decrease in Cmax [2, 10]: 7%

Compound: O=C1NC(=O)C(c2ccccc2)(c2ccccc2)N1 [phenytoin]
- midazolam exposure relative to baseline exposure [1]: below 10%

Compound: C[C@@H](c1ncncc1F)[C@](O)(Cn1cncn1)c1ccc(F)cc1F [voriconazole]
- effect of CYP3A inhibitor on midazolam exposure [1]: increases in midazolam exposure
